Source: US8729059B2, “Paramyxovirus family inhibitors and methods of use thereof” (priority 2007, dated 2014)

What was measured:
recombinant MV-Edm = assay: virus yield reduction assay, MV-Edm; format: cell-based, measles virus; conditions: 36 hours post-infection
MV-Anc [1] = assay: compound specificity assay (BSA, higher virus inoculum); format: cell-based, measles virus
Protocol: Bovine serum albumin (BSA) was added to some samples at a final concentration of 10 mg/ml.

[2] = tested on: canine distemper virus (CDV); format: cell-based; conditions: read-out: IC50 against CDV
[3] = tested on: human parainfluenzavirus type 2 (hPIV2); format: cell-based; conditions: read-out: IC50 against hPIV2
MV-Anc [4] = assay: compound stability under physiological conditions; format: physicochemical, measles virus; conditions: 15 μM, 37° C., pre-incubation for 24 hours
Protocol: To assess compound stability under physiological conditions, inhibitor compound 16677 was dissolved in growth medium (15 μM final concentration) and incubated at 37° C. and physiological pH for different time intervals (24 hours longest). Control samples contained equal amounts of DMSO and were likewise incubated for 24 hours. Subsequent to pre-incubation, MV was added to the compound aliquots and the mixtures transferred to 4×10^5 target cells seeded in a 6-well plate format (resulting MOI=0.1 pfu/cell). Thirty-six hours post-infection, cell-associated viral particles were harvested and virus titers determined by TCID50 titration.

MV [5] = assay: dissociation assay (dialysis); format: cell-based, measles virus; conditions: 15 μM, dialysis against PBS
Protocol: Viral particles (4×10^4 pfu, equaling an MOI=[…]) were mixed with compound 16677 (final concentration 15 μM) dissolved in phosphate buffered saline (PBS). After 10-minute incubation at 37° C. to allow compound binding, samples were either subjected to dialysis against PBS (molecular weight cut off=75 kDa, dilution factor 100,000×, 4° C., 10 hours) or incubated for 10 hours at 4° C. without dialysis. Control samples were treated with DMSO-only and subjected to dialysis. All samples were then transferred to 4×10^5 target cells seeded in a 6-well plate, cell-associated viral particles harvested 36 hours post-infection and viral titers determined by TCID50 titration.

[6] = tested on: panel of primary MV isolates; assay: virus yield dose-response, primary MV isolates; format: cell-based, measles virus
Protocol: For assessment of clinical MV isolates, compound was added in 3-fold dilutions (37.5 μM highest). Thirty-six hours post-infection, cell-associated viral particles were harvested and titered as described above.

MV [7] = assay: virus entry assay (pH 3.0 wash); format: cell-based, measles virus; conditions: 10 μM, compared to DMSO-treated cells
Protocol: For entry experiments, viral particles (MOI=0.5) were absorbed to 4×10^5 target cells in a 6-well plate format at 4° C. in the presence of 10 μM compound 16677 or equal amounts of DMSO for one hour. Cells were then shifted to 37° C. for 30 minutes, followed by inactivation of adsorbed, extracellular virions by a 2-minute acid treatment (40 mM sodium citrate, 10 mM KCl, 135 mM NaCl, pH 3.0) at 25° C. as previously described (37,39,49). Subsequent incubation for 30 hours at 37° C. in the presence or absence of 10 μM compound 16677 as specified was followed by determination of cell-associated virus titers by TCID50 titration.

MV [8] = assay: time of compound addition assay; format: cell-based, measles virus; conditions: 15 μM added 12 hours post-infection, harvest 20 hours post-infection
Protocol: Cells (3×10^5/well in a 12-well plate format) were infected with MV at an MOI=[…] and compounds compound 16677 (final concentration 15 μM) or AS-48 (final concentration 75 μM) added at the indicated time points. Control cells were infected in the presence of equal amounts of DMSO. Twenty hours post-infection, when virus-induced cytopathicity exceeded 90%, cell-associated viral particles were harvested and subjected to TCID50 titration.

MV polymerase complex = MV polymerase complex (Measles virus, UniProt P12576); format: cell-based
Nipah virus polymerase = Nipah virus polymerase (Nipah virus, UniProt Q997F0); format: cell-based
T7 polymerase = T7 polymerase (Escherichia phage T7, UniProt P00573); assay: in vitro protein transcription/translation; format: biochemical; conditions: 50 μM compound vs untreated
Protocol: Rabbit reticulocyte lysates were mixed with 0.5 μg plasmid DNA encoding MV F under the control of the T7 promoter (pT7-MV F), 20 μCi [^35S]-methionine, and compound 16677 (final concentration 50 μM) or equal volumes of DMSO. Samples were incubated at 30° C. for 90 min, mixed with urea buffer (200 mM Tris, pH 6.8; 8 M urea; 5% SDS; 0.1 mM EDTA; 0.03% bromphenolblue; 1.5% dithiothreitol), and fractionated on 12% polyacrylamide gels. Dried gels were exposed to Kodak XAR films.

Vero cells = assay: Trypan blue exclusion assay; conditions: 30 hours

Chain of MV polymerase complex (P03422 whole entry): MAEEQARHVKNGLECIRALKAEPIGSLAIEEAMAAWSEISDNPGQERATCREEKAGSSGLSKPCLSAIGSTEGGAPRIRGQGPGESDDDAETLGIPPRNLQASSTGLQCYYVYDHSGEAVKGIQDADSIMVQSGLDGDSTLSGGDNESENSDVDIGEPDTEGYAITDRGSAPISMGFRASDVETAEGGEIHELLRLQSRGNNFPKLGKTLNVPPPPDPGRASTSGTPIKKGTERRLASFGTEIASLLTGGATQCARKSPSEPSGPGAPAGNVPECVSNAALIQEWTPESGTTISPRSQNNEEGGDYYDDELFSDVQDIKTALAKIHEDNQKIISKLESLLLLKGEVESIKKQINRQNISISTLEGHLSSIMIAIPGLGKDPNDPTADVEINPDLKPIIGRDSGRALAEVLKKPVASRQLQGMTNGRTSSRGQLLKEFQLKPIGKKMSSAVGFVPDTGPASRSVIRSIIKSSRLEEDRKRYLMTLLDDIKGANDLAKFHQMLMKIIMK
Chain of MV polymerase complex (P12576 whole entry): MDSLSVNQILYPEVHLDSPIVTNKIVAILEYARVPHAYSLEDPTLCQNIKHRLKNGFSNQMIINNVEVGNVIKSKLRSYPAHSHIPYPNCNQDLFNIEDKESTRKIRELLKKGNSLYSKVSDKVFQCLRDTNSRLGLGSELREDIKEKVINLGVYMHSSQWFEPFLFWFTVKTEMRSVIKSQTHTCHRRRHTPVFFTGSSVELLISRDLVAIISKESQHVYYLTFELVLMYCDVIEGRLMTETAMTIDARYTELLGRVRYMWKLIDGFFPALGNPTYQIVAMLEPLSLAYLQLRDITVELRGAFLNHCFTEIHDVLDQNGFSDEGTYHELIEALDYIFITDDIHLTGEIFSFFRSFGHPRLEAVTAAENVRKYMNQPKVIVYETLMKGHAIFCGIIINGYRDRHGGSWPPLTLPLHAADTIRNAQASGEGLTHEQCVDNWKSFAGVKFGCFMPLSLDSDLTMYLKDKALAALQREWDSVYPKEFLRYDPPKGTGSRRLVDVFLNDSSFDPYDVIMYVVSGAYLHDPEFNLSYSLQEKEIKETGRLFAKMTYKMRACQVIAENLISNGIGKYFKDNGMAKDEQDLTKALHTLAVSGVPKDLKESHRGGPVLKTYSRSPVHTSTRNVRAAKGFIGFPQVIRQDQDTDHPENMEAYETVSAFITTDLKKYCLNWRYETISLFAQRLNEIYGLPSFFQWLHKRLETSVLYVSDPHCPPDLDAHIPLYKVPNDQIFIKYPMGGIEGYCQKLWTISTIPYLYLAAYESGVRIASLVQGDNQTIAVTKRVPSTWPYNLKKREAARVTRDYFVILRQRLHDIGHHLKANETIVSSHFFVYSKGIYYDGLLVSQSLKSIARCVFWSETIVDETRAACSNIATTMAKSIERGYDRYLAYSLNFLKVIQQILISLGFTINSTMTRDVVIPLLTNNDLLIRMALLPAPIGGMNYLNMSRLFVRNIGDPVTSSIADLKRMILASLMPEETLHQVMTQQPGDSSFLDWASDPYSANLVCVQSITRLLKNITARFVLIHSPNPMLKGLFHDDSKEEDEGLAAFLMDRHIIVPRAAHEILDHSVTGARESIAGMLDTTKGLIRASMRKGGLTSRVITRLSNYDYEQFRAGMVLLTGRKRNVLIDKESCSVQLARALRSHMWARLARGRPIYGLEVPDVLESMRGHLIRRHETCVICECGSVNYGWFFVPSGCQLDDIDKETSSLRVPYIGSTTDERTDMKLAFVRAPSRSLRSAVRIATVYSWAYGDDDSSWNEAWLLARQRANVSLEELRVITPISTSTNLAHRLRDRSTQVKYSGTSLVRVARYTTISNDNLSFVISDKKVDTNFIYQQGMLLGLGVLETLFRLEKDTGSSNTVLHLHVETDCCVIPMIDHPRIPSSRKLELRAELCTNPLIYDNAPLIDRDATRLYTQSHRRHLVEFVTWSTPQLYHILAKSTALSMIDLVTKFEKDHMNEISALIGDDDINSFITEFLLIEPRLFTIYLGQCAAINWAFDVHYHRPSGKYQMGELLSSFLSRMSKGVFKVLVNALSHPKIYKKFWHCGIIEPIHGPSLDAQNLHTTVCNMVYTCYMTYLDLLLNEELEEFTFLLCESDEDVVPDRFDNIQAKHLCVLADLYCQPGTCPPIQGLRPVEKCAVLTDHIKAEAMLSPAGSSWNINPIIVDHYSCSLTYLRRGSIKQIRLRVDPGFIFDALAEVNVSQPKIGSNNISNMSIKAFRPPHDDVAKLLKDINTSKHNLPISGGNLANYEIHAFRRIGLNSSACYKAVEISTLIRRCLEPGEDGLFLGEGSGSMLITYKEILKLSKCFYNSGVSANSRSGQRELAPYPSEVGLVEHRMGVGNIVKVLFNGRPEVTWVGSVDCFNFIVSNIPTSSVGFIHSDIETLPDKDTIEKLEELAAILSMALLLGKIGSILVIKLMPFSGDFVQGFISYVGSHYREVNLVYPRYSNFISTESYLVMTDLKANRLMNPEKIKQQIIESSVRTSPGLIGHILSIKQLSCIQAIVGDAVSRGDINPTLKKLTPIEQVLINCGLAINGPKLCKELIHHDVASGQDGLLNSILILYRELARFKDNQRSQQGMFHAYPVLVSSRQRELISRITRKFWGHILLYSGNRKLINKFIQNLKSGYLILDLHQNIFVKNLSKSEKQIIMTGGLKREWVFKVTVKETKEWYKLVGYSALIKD
Chain of T7 polymerase (P00573 whole entry): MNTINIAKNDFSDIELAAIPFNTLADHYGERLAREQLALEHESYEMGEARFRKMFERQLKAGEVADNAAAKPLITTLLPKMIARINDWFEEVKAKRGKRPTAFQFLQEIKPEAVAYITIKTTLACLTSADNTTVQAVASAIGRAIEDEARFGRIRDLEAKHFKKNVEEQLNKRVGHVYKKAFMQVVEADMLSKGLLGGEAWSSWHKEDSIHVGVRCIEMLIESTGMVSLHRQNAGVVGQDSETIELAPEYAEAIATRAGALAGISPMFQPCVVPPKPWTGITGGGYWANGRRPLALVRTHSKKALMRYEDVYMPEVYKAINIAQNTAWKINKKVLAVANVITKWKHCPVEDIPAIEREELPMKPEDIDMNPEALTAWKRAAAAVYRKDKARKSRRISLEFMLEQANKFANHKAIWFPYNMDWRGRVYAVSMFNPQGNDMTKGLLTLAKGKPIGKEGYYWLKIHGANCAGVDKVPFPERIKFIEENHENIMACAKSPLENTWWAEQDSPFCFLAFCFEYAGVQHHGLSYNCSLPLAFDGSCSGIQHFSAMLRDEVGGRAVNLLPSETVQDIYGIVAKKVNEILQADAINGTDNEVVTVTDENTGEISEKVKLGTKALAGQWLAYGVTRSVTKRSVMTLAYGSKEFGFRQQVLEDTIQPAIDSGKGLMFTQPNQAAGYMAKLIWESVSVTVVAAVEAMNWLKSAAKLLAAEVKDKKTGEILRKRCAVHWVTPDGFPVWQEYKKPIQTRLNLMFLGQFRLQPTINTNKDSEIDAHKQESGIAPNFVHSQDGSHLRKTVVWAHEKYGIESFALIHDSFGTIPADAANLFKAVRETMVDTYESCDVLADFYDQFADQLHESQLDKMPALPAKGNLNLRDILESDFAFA

## Cn1nc(C(F)(F)F)cc1C(=O)Nc1ccc(S(=O)(=O)N2CCCC2)cc1 [compound 16677, 1-methyl-3-(trifluoromethyl)-N-[4-(pyrrolidinylsulfonyl)-phenyl]-1H-pyrazole-5-carboxamide]
Recombinant MV-Edm
  IC50: ~0.24 µM
MV-Anc [1]
  change of IC50 with 10 mg/ml BSA or five-fold higher virus inoculum: no significant differences were observed
[2]
  IC50: 28 µM
[3]
  IC50: > 75 µM
MV-Anc [4]
  antiviral activity after pre-incubation in cell culture medium: no loss in antiviral activity
MV [5]
  inhibitory activity after dialysis prior to infection (reversibility): completely ablated by dialysis
[6]
  inhibition of MV-Ibd (genotype B3, resistant to MV entry inhibitors): efficiently inhibited
MV [7]
  effect of pH 3.0 wash on virus yields after absorption in presence of compound: only slightly affected
MV [8]
  reduction in virus yields: approximately 99.9%
MV polymerase complex
  CAT expression in MV minireplicon assay: strong dose-dependent inhibition of CAT expression
  IC50 in minigenome assay relative to IC50 against MV isolates: about 25 times
Nipah virus polymerase
  effect on Nipah virus minireplicon: no effect
T7 polymerase
  F protein produced in cell-free transcription/translation: Equal amounts of F protein were detected
cells
  CC50: > 150 µM
Vero cells; compound concentration 500 μM
  number of live cells, of solvent-treated controls: approximately 80%

## O=C(NC(=O)N(c1ccc(Cl)cc1)S(=O)(=O)c1ccccc1)Nc1ccccc1Cl [compound 15960]
Recombinant MV-Edm
  IC50: 3.4 µM
cells
  CC50: 120 µM

## Cc1ccc2[nH]c(=O)c(CNS(=O)(=O)c3ccccc3)c(-c3ccccc3)c2c1 [compound 68290]
Recombinant MV-Edm
  IC50: 7.7 µM
cells
  CC50: > 150 µM
Vero cells; trypan-blue exclusion
  concentration giving 50% reduction of the number of live cells: approximately 75 μM

## Cc1ccc2nsnc2c1S(=O)(=O)Nc1ccc(Cl)cc1 [compound 99920]
Recombinant MV-Edm
  IC50: 1.3 µM
cells
  CC50: 100 µM
